Measured values as given in patent US11428689B2, “Methods and uses for remotely triggered protease activity measurements” (Massachusetts Institute of Technology, priority 2016, dated 2022).
“Also recorded” adds a separate entry of the source. One block for each compound: values may come before it. Where no end group is shown, it is not given here. [ ]: non-standard residue; d: D form. FAM = fluorescein

Assays:
[1] = system: LS174T; assay: Secreted protease activity assay with quenched substrates; format: cell-based, human; conditions: for cleavage by cell-secreted proteases: fluorescently quenched versions, LS174T conditioned supernatant
Protocol: Next, whether the MAPS(S1-S3) could distinguish MMP profiles of different tumor types was probed. […] Cleavage of the substrates was tested by cell-secreted proteases by employing fluorescently quenched versions and exposing them to conditioned supernatant.
LS174T and HCT-8 cells were cultured in Eagle's Minimal Essential Medium (ATCC) supplemented with 10% FBS (Gibco) and 1% penicillin-streptomycin (CellGro). Cells were passaged when confluence reached 80%. To isolate secreted proteases, after cells were plated, cells were washed and replaced in serum-free media. Media was collected and MMP2 was measured in supernatant using a Quantikine MMP-2 kit following manufacturer protocols (R&D Systems). Secretion was normalized to number of cells and days in culture. A similar approach was used when collecting supernatants for measuring proteolysis of S1-3.

[2] = target: T1, MMP7 (Homo sapiens, UniProt P09237); assay: In vitro recombinant protease assay with streptavidin depletion; format: biochemical; conditions: ~100 nM MMP, one hour
T1 construct: purchased Enzo Life Sciences
T1 sequence (P09237 95-267): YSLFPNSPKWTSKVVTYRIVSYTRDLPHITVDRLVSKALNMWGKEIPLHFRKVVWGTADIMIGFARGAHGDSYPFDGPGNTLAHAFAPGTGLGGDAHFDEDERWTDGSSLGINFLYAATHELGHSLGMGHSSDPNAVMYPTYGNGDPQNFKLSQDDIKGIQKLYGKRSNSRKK
Protocol: (§1) MMPs (˜100 nM working concentration, Enzo Life Sciences) were added to substrates in 384-well plates in activity buffer (50 mM Tris, 150 mM NaCl, 5 mM CaCl2, 1 μM ZnCl2) containing 1% BSA. After one hour, uncleaved peptide was extracted using Dynabeads Strepatividin C1 (Life Technologies) as per manufacturer protocols. An excess of Dynabeads was used.

[3] = target: T2, MMP19 (Homo sapiens, UniProt Q99542); assay: as above; format: biochemical; conditions: ~100 nM MMP, one hour
T2 construct: purchased Enzo Life Sciences
T2 sequence (Q99542 98-508): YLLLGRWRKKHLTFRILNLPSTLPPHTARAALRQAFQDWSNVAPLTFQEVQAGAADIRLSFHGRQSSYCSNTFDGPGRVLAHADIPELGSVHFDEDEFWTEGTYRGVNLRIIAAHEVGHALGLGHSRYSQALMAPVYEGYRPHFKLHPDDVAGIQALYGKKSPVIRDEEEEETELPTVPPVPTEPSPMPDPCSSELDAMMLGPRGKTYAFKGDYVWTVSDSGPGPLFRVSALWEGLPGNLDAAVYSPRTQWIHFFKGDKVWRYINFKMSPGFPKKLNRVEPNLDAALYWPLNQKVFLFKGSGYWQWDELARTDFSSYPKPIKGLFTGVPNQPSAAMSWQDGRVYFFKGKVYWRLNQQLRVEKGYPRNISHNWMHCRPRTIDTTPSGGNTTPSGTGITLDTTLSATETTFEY
Protocol: as §1

[4] = system: LS174T flank tumor; conditions: LS174T tumor-bearing mice
Text: (§2) The in vivo activation protocol was applied to specifically activate the three sets of MAPS to profile tumor protease activity between LS174T and HCT8 tumors.

[5] = system: LS174T cells; assay: Secreted protease activity assay, conditioned media; format: cell-based, human; conditions: conditioned media from LS174T cells
Protocol: LS174T and CCD-18Co (ATCC CRL-1459) cells were cultured in Eagle's Minimal Essential Medium (ATCC) supplemented with 10% FBS (Gibco) and 1% penicillin-streptomycin (CellGro). Cells were passaged when confluence reached 80%. To isolate secreted proteases, after cells were plated, cells were washed and replaced in serum-free media. Conditioned media was collected 24 h later and exposed to C1-NPs to measure fluorescence dequenching.

[6] = target: T1, MMP7; assay: In vitro recombinant protease assay (fluorescence dequenching of NP-bound substrate); format: biochemical; conditions: 100 μM final concentration
Protocol: (§3) C1-NP complexes sensitive to MMP cleavage were mixed with 1% (wt/vol) BSA (Sigma) and incubated with recombinant proteases (MMPs and ADAMs: Enzo Life Sciences; Clotting proteases: Haematologic Technologies) in a final volume of 100 μL in enzyme-specific buffers (MMP buffer: 50 mM Tris, 150 mM NaCl, 5 mM CaCl2, 1 μM ZnCl2, pH 7.5; Clotting proteases: PBS) in a 384-well plate for time-lapse fluorimetry to measure dequenching from homoquenched peptides at 37° C. (SpectroMax Gemini EM Microplate Reader). For the metalloproteinase, enzymes were diluted 1:10 in enzyme specific buffer, and for clotting proteases, enzymes were diluted 1:100. Cleavage heatmap was generated using GENE-E (Broad Institute). Michaelis-Menten constants were determined by assessing initial cleavage velocities at different substrate concentrations. The MMP inhibitor Marimatstat (Tocris) was added to the mixture at 100 μM final concentration. To identify the cleavage position by MMP9, C1-NPs were incubated with MMP9 overnight, and the N-terminal cleavage fragment was isolated and analyzed by MALDI. The sequence corresponding to the dominant peak was identified, and the final amino acid was in that sequence represents the P1 position (toward the N-terminal end from scissile bond). For protease resistance assays, various DMNPE: peptide ratios were reacted overnight and purified prior to being added to proteases.

[7] = target: T3, MMP9 (Homo sapiens, UniProt P14780); assay: as above; format: biochemical; design: purchased Enzo Life Sciences
T3 sequence (P14780 94-707, species assumed): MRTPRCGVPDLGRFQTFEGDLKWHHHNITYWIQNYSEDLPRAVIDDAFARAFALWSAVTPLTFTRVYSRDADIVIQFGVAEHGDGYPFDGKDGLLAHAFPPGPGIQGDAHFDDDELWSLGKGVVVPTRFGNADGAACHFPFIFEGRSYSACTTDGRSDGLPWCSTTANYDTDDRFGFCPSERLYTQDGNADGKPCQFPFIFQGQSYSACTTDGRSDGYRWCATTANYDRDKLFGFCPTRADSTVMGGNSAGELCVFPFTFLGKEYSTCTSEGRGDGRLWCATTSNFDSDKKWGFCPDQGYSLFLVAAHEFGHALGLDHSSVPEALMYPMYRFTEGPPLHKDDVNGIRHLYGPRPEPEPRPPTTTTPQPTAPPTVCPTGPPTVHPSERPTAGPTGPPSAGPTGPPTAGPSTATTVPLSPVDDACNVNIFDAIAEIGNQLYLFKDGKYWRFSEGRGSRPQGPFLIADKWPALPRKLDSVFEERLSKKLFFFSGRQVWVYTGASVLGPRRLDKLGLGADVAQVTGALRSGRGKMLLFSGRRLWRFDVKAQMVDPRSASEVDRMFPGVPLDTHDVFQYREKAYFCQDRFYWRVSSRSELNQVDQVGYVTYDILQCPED
Protocol: as §3
(§4) Light activation of peptides for biochemical studies was performed using a CL-1000 UV Cross-linker (UVP, 8 mW/cm^2). Power density was measured by an OAI 306 UV power meter at 365 nm. Typical exposure time for these studies was 10-30 min. For activation in cell and animal studies, Lumen Dynamics UV system with 365 nm fiber light guide was used (OmniCure 1000, 200 mW/cm^2). For in vivo activation at the tumor site, mice were anesthetized, and the light was guided through an optical cable and placed approximately 3 cm from the flank tumor. Each flank tumor was exposed for 30 s.

[8] = target: T3, MMP9; assay: Agarose gel assay; format: biochemical; conditions: light exposure 1 min, 200 mW/cm^2
Protocol: Agarose (type I-A, Sigma) was dissolved in MMP9 specific buffer (1% w/v) and heated. As the gel mixture was cooling, gel solution was transferred into a 96-well plate and mixed with STREAMs and recombinant MMP9. After gelation, the gels were activated (as above), and fluorescence dequenching through cleavage was monitored using time-lapse fluorimetry.

[9] = target: T4, MMP13 (Homo sapiens, UniProt P45452); assay: In vitro recombinant protease assay (fluorescence dequenching of NP-bound substrate); format: biochemical
T4 construct: purchased Enzo Life Sciences
Protocol: as §3, §4

[10] = target: T5, recombinant thrombin (Homo sapiens, UniProt P00734); assay: In vitro recombinant protease assay (fluorescence release); format: biochemical; conditions: veiled vs unmodified
T5 construct: purchased Haematologic Technologies
Protocol: as §3

[11] = system: LS174T cells; assay: 3D collagen cancer tissue model, peptide fluorescence in supernatant; format: cell-based, human
Protocol: Next, the activation of the nanosensors in a 3D ECM environment was probed. Forty LS174T cells were embedded in collagen I together with veiled or unmodified nanosensors (FIG. 4A). The constructs were monitored for protease activity by collecting the supernatant and measuring liberated peptide fragments under different conditions: L-amino acid peptide substrates were compared to D-amino acid counterparts to measure nonspecific background, and the role of DMPNE veiling was measured.
In order to correlate regions of light-activation with protease activity measurements, light-activated rhodamine dye was included to visualize regions exposed to light (FIG. 12A). To explore the ability to monitor protease activity with spatial and temporal control, only the left half of the gels was illuminated.
LS174T cells were encapsulated in 2.5 mg/mL collagen hydrogels (rat tail collagen type I, Corning). Imaging was done on Nikon Eclipse Ti Inverted Microscopes and Zeiss Stereoscope Discovery v20. When protease activity was measured, surrounding media was serum-free.

[12] = target: plasmin (Homo sapiens, UniProt P00747); assay: Proteolysis of alternate DMNPE-veiled substrate; format: biochemical
Chain of plasmin (P00747 581-810 limits assumed, species assumed): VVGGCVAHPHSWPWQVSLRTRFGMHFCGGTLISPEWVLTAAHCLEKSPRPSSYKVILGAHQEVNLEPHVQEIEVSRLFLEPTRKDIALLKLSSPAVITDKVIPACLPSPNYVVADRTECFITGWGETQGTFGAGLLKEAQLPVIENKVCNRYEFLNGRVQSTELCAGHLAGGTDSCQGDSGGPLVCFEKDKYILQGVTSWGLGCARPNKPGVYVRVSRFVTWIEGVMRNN
Chain of plasmin (P00747 97-580 partner limits assumed, species assumed): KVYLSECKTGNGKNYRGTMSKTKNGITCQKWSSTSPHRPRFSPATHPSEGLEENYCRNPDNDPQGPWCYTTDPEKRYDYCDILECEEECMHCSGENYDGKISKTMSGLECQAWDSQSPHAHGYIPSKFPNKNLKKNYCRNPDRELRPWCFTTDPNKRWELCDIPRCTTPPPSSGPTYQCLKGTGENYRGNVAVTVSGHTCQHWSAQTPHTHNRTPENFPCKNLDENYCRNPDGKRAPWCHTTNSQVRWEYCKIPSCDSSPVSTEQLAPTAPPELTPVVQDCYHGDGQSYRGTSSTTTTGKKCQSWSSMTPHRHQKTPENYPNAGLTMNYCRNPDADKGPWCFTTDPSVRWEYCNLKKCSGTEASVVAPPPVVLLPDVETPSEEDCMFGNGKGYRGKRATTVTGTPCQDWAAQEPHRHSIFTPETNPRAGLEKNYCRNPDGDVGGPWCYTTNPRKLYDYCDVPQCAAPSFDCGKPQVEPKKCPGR
Text: To validate that the approach is generalizable to alternative substrates, the STREAMs principle was applied to a second peptide sequence. Additionally, the reporter for this additional sequence was designed to be orthogonal to the original sequence (containing a near IR dye as opposed to fluorescein). […] The ability to produce STREAMs with orthogonal reporters for multiple substrate targets, in some embodiments, enables multiplexing. Additionally, coupling this approach with alternate modes for multiplexing analyte detection, in some embodiments, enables simultaneous monitoring of several substrates.
Fluorescein-conjugated peptides (MMP sensitive, C1: FAM-sk-PLGLEEA-GC; SEQ ID NO: 3) were synthesized. D-amino acid controls were also synthesized, where the substrate sequence was all D-stereoisomers. Peptides for in vivo studies that contain a ligand-encoded reporter for urinary clearance and subsequent ELISA detection were synthesized (V1: Biotin-PEG(5 kDa)-(KFAM)-PLGLEEA-GC; SEQ ID NO: 4). The PEG 5 kDa reporter is efficiently cleared by the renal system into the urine and can be quantified by ELISA for the conjugated ligands. The alternate substrate to show STREAMs extensibility was synthesized at a different location (sequence: eGvndneeGffsarKsRLVGEGC; SEQ ID NO: 5). VT750 (PerkinElmer) was conjugated to the free lysine prior to coupling to DMNPE. […]

[13] = target: T3, MMP9; assay: In vitro recombinant protease assay with streptavidin depletion; format: biochemical; design: purchased Enzo Life Sciences; conditions: ~100 nM MMP, one hour
Protocol: as §1

[14] = target: T6, MMP2 (Homo sapiens, UniProt P08253); assay: as above; format: biochemical; conditions: ~100 nM MMP, one hour
T6 construct: purchased Enzo Life Sciences
T6 sequence (P08253 110-660): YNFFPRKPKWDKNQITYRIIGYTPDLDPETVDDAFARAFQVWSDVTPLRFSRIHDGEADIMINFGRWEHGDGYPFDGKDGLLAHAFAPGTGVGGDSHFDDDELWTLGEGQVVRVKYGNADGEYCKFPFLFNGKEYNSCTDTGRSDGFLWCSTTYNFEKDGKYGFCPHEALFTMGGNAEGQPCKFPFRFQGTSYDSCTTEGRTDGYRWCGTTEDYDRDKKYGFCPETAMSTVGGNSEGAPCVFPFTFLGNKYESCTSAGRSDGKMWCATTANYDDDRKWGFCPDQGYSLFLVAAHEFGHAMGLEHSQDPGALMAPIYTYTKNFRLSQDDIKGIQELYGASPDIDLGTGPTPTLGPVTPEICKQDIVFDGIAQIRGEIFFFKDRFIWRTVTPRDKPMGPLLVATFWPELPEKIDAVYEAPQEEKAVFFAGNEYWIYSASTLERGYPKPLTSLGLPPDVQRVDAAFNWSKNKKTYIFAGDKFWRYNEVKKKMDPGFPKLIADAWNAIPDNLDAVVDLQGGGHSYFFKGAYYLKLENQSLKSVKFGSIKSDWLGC
Protocol: as §1

[15] = healthy mice
Text: as §2

[16] = increasing periods of light exposure, 8 mW/cm^2

Compound: Biotin-CGPVPLSLVMK(Cy7)eGvndneeGffsar-NH2 [S2]
- cleavage by cell-secreted proteases [1]: minimal cleavage
- relative proteolysis by MMP7 [2]: cleaved efficiently
- relative proteolysis by MMP19 [3]: cleaved efficiently
- urine signal of free peptide [4]: similar

Compound: FAM-sk-plGleea-GC ({FAM}-[dS][dK][dP][dL]G[dL][dE][dE][dA]GC; also: nanoparticle conjugated) [control NPs conjugated to D-amino acid stereoisomers]
- cleavage by cell-secreted proteases [5]: not cleaved

Compound: CNC(=O)[C@@H](NC(=O)[C@H](CC(C)C)[C@H](O)C(=O)NO)C(C)(C)C [Marimastat]
- effect of inhibitor on proteolysis by LS174T secreted proteases [1]: abrogated
- effect of inhibitor on proteolysis of C1-NP by MMP7 [6]: inhibited; also recorded: abrogates cleavage

- proteolysis by MMP9 after conjugation with DMNPE ([7]; veiled vs unmodified, no light): marked reduction in proteolysis
- proteolysis by MMP13 after conjugation with DMNPE ([9]; veiled vs unmodified, no light): marked reduction in proteolysis
- cleavage by thrombin [10]: reduced cleavage
Compound: STREAMs: C1-NPs whose peptide is veiled with photolabile DMNPE groups; unveiled by 365 nm light ({FAM}-[dS][dK]PLGLE(DMNPE)E(DMNPE)AGC(iron oxide nanoparticle); not fully specified)
- proteolysis by MMP9 after exposure to 365 nm light [7, 16]: elevated proteolysis in a light exposure-dependent manner
- stability of DMNPE conjugation (resistance to MMP9-mediated cleavage) ([7]; two weeks post-DMNPE-coupling): equal levels of protection compared to freshly conjugated samples
- proteolytic cleavage after light exposure in agarose gel [8]: dramatic increase in proteolytic cleavage
- proteolysis by MMP13 after exposure to 365 nm light [9, 16]: elevated proteolysis in a light exposure-dependent manner
- liberated peptide fluorescence in supernatant ([11]; first day, no light): significantly less peptide fluorescence compared to unmodified L-amino acid sensors
- peptide fluorescence in supernatant after light exposure ([11]; left half of gels illuminated, 24 h, 30 s at 200 mW/cm^2): higher levels of peptide fluorescence

- proteolysis by plasmin after coupling of DMNPE [12]: reduced proteolysis
- proteolysis by plasmin after UV exposure ([12]; then UV): recovered
Compound: RLVGEGC [eGvndneeGffsarKsRLVGEGC]

Compound: Biotin-CGPVGLIGK(Cy7)eGvndneeGffsar-NH2 [S1]
- relative proteolysis by MMP9 [13]: responded primarily
- cleavage by cell-secreted proteases [1]: cleaved most significantly
- relative proteolysis by MMP2 [14]: responded primarily
- urine signal of free peptide [4]: elevated

Compound: Biotin-CGPLGVRGKK(Cy7)eGvndneeGffsar-NH2 [S3]
- relative proteolysis by MMP9 [13]: responded primarily
- cleavage by cell-secreted proteases [1]: minimal cleavage
- relative proteolysis by MMP2 [14]: responded primarily
- urine signal of free peptide [4]: similar
- background cleavage of free peptide [15]: lowest background cleavage
